Data taken from PMC12162873, “Modulating phosphatase DUSP22 with BML-260 ameliorates skeletal muscle wasting via Akt independent JNK-FOXO3a repression” (EMBO Molecular Medicine, 2025).
Where “and” joins values, the source holds several entries; their conditions need not be identical. Equal values may be shown once. Entries after “also recorded” stand apart in the source; their conditions may differ.

Tests used:
[1] = system: 24-26-month-old male C57BL/6 mice; assay: Skeletal muscle aging model, BML-260 treatment; type: in vivo, mouse; design: Area / Feret / Feret, Average / Area, Average: unit not given here; conditions: for Area / Feret: listed as BML
Procedure: To assess DUSP22 pharmacological targeting, BML-260 was treated to 24–26-month-old male C57BL/6 mice as follows: (1) vehicle alone (5% DMSO + 5% tween 80) and (2) 5 mg/kg BML-260 (n = 5 per group). Mice were treated via IP delivery every 24 h for 4 weeks and then assessed for skeletal muscle function and condition.
Grip strength was measured using the BIO-GS3 device (Bioseb, FL, USA). Mice were placed onto the grid with all four paws attached and gently pulled backwards to measure the grip strength until the grid was released. The maximum grip value, used to represent muscle force, was calculated using 3 trials with an interval of 30 s.
Muscle fatigue was measured the previously described protocol (Chiu et al, [2018]), with two different models using the Rotarod. One was the constant model and the other was the accelerating model that is inherent in the rotarod device. In brief, the mice were accommodated to training before the commencement of the fatigue task using an accelerating rotarod (Ugo Basile, Italy). The mice were trained at a constant speed of 13 rpm for 15 min. After a recovery period of 15 min, the mice were placed on the rotarod adjusted to accelerate from 13 to 25 rpm in 3 min for 15 min. 24 h later, the muscle fatigue test was carried out with speeds ramping from 13 to 25 rpm in 3 min, and maintained at 25 rpm for a 30 min interval. Latency to fall off the rotarod was measured for each mouse. A fatigued mouse was classified as falling off 4 times within a 1 min period, which also terminated the test.
Mice were anesthetized using ketamine (22 mg/kg; Yuhan, Republic of Korea) and xylazine (10 mg/kg; Bayer, Republic of Korea) in saline by IP injection. The quadriceps, gastrocnemius, soleus and TA muscles were then dissected and weighed. For histological analysis, the muscles were fixed by overnight incubation with 4% paraformaldehyde in PBS pH 7.4 at 4 °C. Paraffin sectioning and H&E staining were provided by the Animal Housing Facility, Gwangju Institute of Science and Technology, Republic of Korea (5 µm muscle sections using a Thermo Scientific HistoStar (Thermofisher). H&E staining was carried out with a kit (Merck, Germany)). For immunohistochemistry, TA muscle sections were permeabilized for 15 min (PBS with 0.5% Triton X-100), blocked for 1 h (5% BSA) and incubated with the primary antibody overnight at 4 °C (a list of primary and secondary antibodies used in this study are provided in Appendix Tables S4 and S5, respectively). After washing with PBS 3 times for 5 min, the sections were incubated with the secondary antibody at RT for 1 h. The nuclei were counterstained with DAPI in ProLong™ Gold Antifade Mountant (Invitrogen, P36935). Digital images were acquired with Leica DM 2500 (Leica Microsystems). Cross sectional area (CSA) and fiber size distribution was measured using the NIH imaging software Image J 64. To CSA and size distribution of different fiber types was calculated in 4 muscle section as follows: type 2 A: 30–40 fibers measured; type 2B: at least 100 fibers measured; type 2X: 30–40 fibers measured.

[2] = system: 15-month-old C57BL/6J male mice; assay: Assessment of potential organ toxicity (liver, heart, kidney); type: in vivo, mouse; design: Kidney mass / Liver mass / heart mass / Kidney mass, Average / Liver mass, Average / heart mass, Average: unit not given here; conditions: 5 mg/kg IP every 24 h for 6 weeks
Procedure: To assess the effect of BML-260 treatment on the liver, heart and kidney, 15-month-old C57BL/6J male mice were treated as follows: 1) Vehicle (DMSO in PBS pH 7.4 with 5% Tween 80) alone, 2) 5 mg/kg BML-260 (n = 4 per group). BML-260 was administered via IP delivery every 24 h for 6 weeks. The mice were then sacrificed and the liver, kidneys and heart were weighed and photographed.
A) Photographs of the kidneys, liver, and heart after 6 weeks treatment with 5 mg/kg in 15 month-old mice. (n=4) B) Kidney(p=0.4403), liver(0.5545), and heart(0.5349) mass. ns=not statistically significant. n represents biological replicates analyzed by Student’s t test. Error bars represent the standard error of the mean (SEM).
(1 picture or pasted object on this page, not shown here)

[3] = 5 mg/kg IP every 24 h for 4 weeks
[4] = S10.B, group average of 3 animals
[5] = S10.B, individual measurements, animal BML 1
[6] = S10.B, mean per animal (BML 1, BML4, BML5)

SMILES: O=C(O)c1ccc(N2C(=O)C(=Cc3ccccc3)SC2=S)cc1 (stereo in doubt) [BML-260]
- CSA and Feret's diameter of type 2A, 2B and 2X myofibers, TA and gastrocnemius [1, 3]: increased
- DUSP22 levels in the TA muscle, western blot [1, 3]: reduced DUSP22 levels
- body weight [1, 3]: not significantly affected
- expression of PGC-1α, qPCR [1, 3]: increased
- expression of atrogin-1 and MuRF-1 in the TA muscle, qPCR [1, 3]: reduced
- expression of myostatin, qPCR [1, 3]: reduced
- grip strength mean value [1, 3]: increased by BML-260 treatment but did not reach statistical significance
- latency to fall in the rotarod test [1, 3]: statistically increased
- mass of quadriceps, gastrocnemius, TA and soleus muscles [1, 3]: increased the mean mass value of the quadriceps, gastrocnemius, TA and soleus muscles, and reached statistical significance for the TA and gastrocnemius muscles
- proportion of slow type 1 myofibers [1, 3]: did not significantly affect
- Area, Average [1, 4]: 2003.72
- Feret, Average [1, 4]: 60.0894
- Area [1, 5]: 2289.78 and 2476.44 and 2826.67 and 1960.89 and 2172.44 and 1594.67 and 2152.89 and 2090.67 and 1617.78 and 2085.33 and 2567.11
- Feret [1, 5]: 75.248 and 68.56 and 66.573 and 63.175 and 60.296 and 56.506 and 57.366 and 56.056 and 52.173 and 66.306 and 72.271
- Area [1, 6]: 2166.79 and 2165.89 and 1678.47
- Feret [1, 6]: 63.1391 and 63.015 and 54.114
- DUSP22 expression, western blot quantification, Average ([1]; TA of aged mice (Fig EV4A), Young average = 1): 0.2806
- DUSP22 expression, western blot quantification ([1]; TA of aged mice (Fig EV4A), Young average = 1, individual animals): 0.2303 and 0.3985 and 0.213
- increase of grip strength ([1]; aged skeletal muscle): > 20%
- kidney, liver and heart appearance and mass [2]: no major difference compared to vehicle-treated mice; also recorded: no gross significant change
- Kidney mass ([2]; individual animals): 4.5487 and 5.186 and 4.22 and 4.517
- Liver mass ([2]; individual animals): 49.3264 and 63.6644 and 45.6088 and 64.8958
- heart mass ([2]; individual animals): 3.6875 and 4.058 and 4.981 and 4.532
- Kidney mass, Average ([2]; n = 4): 4.6181
- Liver mass, Average ([2]; n = 4): 55.8738
- heart mass, Average ([2]; n = 4): 4.315
